# Key:
# Format in all cases: physicochemical
# [1] = Stability evaluation on exposure to heating, light or humidifying stimulus (HPLC)
# Protocol: The Form-I crystal of the p-TsOH salt of the compound A and the free form crystal of the compound A prepared according to the method described in PATENT DOCUMENT 1 were exposed to heating stimulus (allowed to stand at 60°C for 24 hours), light stimulus (light source: D65 lamp, total intensity: 1.2 million lx·hr), or humidifying stimulus (allowed to stand at 30°C and a relative humidity of 90% for 24 hours), and the stability thereof was evaluated based on the percentage (%) of the area of the peak of the free form of the compound A or the Form-I crystal of the p-TsOH salt of the compound A in the observed peaks in HPLC with and without exposure to the stimuli.
# [2] = Thermal stability of Form-II crystal (X-ray powder diffraction while heating and cooling); conditions: heated to 30°C, 150°C, 200°C, then cooled to 150°C and 30°C
# Protocol: Therefore, for the Form-II crystal of the p-TsOH salt of the compound A, the crystal form was examined by X-ray powder diffraction while increasing the temperature to 30°C, 150°C, and 200°C, and then the crystal form was further examined by X-ray powder diffraction while cooling to 150°C and 30°C.
# [3] = Stability test of Form-III crystal at 40°C and 75% relative humidity; conditions: relative humidity 75%
# Protocol: About 10 mg of the Form-III crystal of the p-TsOH salt of the compound A obtained in Example 2 was allowed to stand at 40°C and a relative humidity of 75% for 7 days or longer, and as a result, the Form-III crystal of the p-TsOH salt of the compound A was able to exist stably for 7 days or longer.
# [4] = Crystal form transition on standing at 40°C and 75% relative humidity (relative stability); conditions: 1/2 acetonitrile solvate crystal at 40°C, relative humidity 75%, 7 days gave Form-IV crystal
# Protocol: About 10 mg of the 1/2 acetonitrile solvate crystal of the p-TsOH salt of the compound A obtained in Example 3 was allowed to stand at 40°C and a relative humidity of 75% for 7 days, and as a result, a Form-IV crystal of the p-TsOH salt of the compound A was obtained.
# [5] = Relative stability between crystals: six forms stirred together in DMF/toluene (X-ray powder diffraction); conditions: Form-I, III, IV, V, VI, VII, 100 mg each, in DMF/toluene 1:9, stirred at 20°C or 55°C
# Protocol: The crystals of the p-TsOH salt of the compound A prepared in Examples 1 to 3 and Comparative Examples 1 to 3 were each weighed in 100 mg, a total of 600 mg was added to 30 mL of a mixed solvent of DMF and toluene having a volume ratio of 1:9, and the mixture was stirred at 20°C or 55°C. After 3, 4, 7, and 8 days from the start of stirring at 20°C, and after 3 and 4 days from the start of stirring at 55°C, the crystal form of the p-TsOH salt of the compound A in the mixed solution was measured by X-ray powder diffraction.
# [6] = Crystal form transition on heating (relative stability of crystal forms)
# Protocol: The Form-V crystal of the p-TsOH salt of the compound A obtained in Comparative Example 1 was heated at 205°C for 10 minutes, and as a result, a Form-III crystal of the p-TsOH salt of the compound A was obtained.
# The Form-VI crystal of the p-TsOH salt of the compound A obtained in Comparative Example 2 was heated at 190°C for 10 minutes, and as a result, a Form-III crystal of the p-TsOH salt of the compound A was obtained.
# [7] = Stability of crystal form on mechanical stimulus and water (X-ray powder diffraction); conditions: pulverized, water-treated, stored at 30°C, relative humidity 90%, tableted (2,000 kgf × 30 min)
# Protocol: X-ray powder diffraction measurement was performed for a crystal (pulverized) obtained by pulverizing the Form-I crystal of the p-TsOH salt of the compound A in a mortar, a crystal (water-treated) obtained by kneading the Form-I crystal of the p-TsOH salt of the compound A after adding water, a sample of the Form-I crystal of the p-TsOH salt of the compound A stored under a humidifying stimulus condition (30°C, relative humidity of 90%), and a sample obtained by tableting the Form-I crystal of the p-TsOH salt of the compound A (2,000 kgf × 30 min). The results are shown in FIG. 24 together with the results of the Form-I crystal of the p-TsOH salt of the compound A not undergoing any treatment (untreated).
# [8] = Relative stability of Form-I to Form-III crystals: pairs stirred in acetone (X-ray powder diffraction); conditions: pairs at mass ratio 1:1 in acetone, 30°C, 42 hours
# Protocol: The Form-I crystal and the Form-II crystal of the p-TsOH salt of the compound A, the Form-I crystal and the Form-III crystal of the p-TsOH salt of the compound A, or the Form-II crystal and the Form-III crystal of the p-TsOH salt of the compound A were added to acetone at a mass ratio of 1:1, and the mixture was stirred at 30°C for 42 hours. Then, the crystal form of the p-TsOH salt of the compound A in the solution was examined by X-ray powder diffraction, and as a result, under all the three conditions, each of the crystals of the p-TsOH salt of the compound A in the solution transitioned to a Form-I crystal.
# [9] = Stability of Form-I crystal in various solvents (X-ray powder diffraction); conditions: pulverized crystal in methanol, ethyl acetate or methyl ethyl ketone, 40°C, 115 hours
# Protocol: In order to facilitate the transition of the crystal form by a solvent, the Form-I crystal of the p-TsOH salt of the compound A was pulverized in a mortar. The obtained pulverized material was added to methanol, ethyl acetate, or methyl ethyl ketone, and the mixture was stirred at 40°C for 115 hours. After stirring, the crystal form of the p-TsOH salt of the compound A in the solution was examined by X-ray powder diffraction, and the results are shown in FIG. 28.
# [10] = Stability test of Form-I crystal when mixed with excipient (40°C, 75% relative humidity, open system; HPLC and visual inspection); conditions: for observation of the color of the crystal: crystal only and all excipient mixtures, visual inspection
# Protocol: The Form-I crystal of the p-TsOH salt of the compound A was mixed with each of various excipients at a mass ratio of 1:1 using a mortar, was allowed to stand in a thermo-hygrostat at a temperature of 40°C and a relative humidity of 75% in an open system for 2 weeks or 1 month, and then evaluated for the presence/absence of decomposition using HPLC and checked for color change by visual inspection. The stability of only the Form-I crystal of the p-TsOH salt of the compound A was also evaluated as a reference. The conditions for HPLC are as follows. • Instrument: SHIMADZU LC-2010 CHT • Column: COSMOSIL 3C18-MSII 4.6×100 mm • Column temperature: 40°C • Mobile phase: Liquid A; MeCN/H2O/MsOH = 600/400/1 Liquid B: MeCN/H2O/MsOH = 900/100/1 • Gradient: 0-8 min; A = 100% • 8-10 min; A to B • 10-20 min; B = 100% • 20-21 min; B to A • Flow rate: 0.5 mL/min • Wavelength: 230 nm
# The results of the percentage (%) of the area of the peak of the Form-I crystal of the p-TsOH salt of the compound A in the observed peaks in HPLC and observation of the color of the crystal are shown in Table 3. According to Table 3, no decomposition of the Form-I crystal of the p-TsOH salt of the compound A was observed under the conditions of mixing with any of the excipients, and no color change occurred. […]
# [11] = Differential thermal analysis and thermogravimetric analysis (TG/DTA); conditions: heating rate 10.0°C/min, nitrogen
# Protocol: TG/DTA in Examples 1 to 11 was measured by TG-8120 (manufactured by Rigaku Corporation) (cell: alumina (open), gas: nitrogen, heating rate: 10.0°C/min, hold temperature: 300°C, hold time: 0 min) unless otherwise specified.
# The results of differential scanning calorimetry (DSC) of the Form-I crystal of the p-TsOH salt of the compound A are shown in FIG. 2. The results of thermophysical property measurement by differential thermal analysis (DTA) and thermogravimetric analysis (TGA) of the Form-I crystal of the p-TsOH salt of the compound A are shown in FIG. 3.
# [12] = Heating stimulus: 60°C for 24 hours
# [13] = Humidifying stimulus: 30°C, relative humidity 90%, 24 hours
# [14] = Light stimulus: D65 lamp, total intensity 1.2 million lx·hr
compound,measurement,setting,value
"COCc1nc2c(C(=O)Nc3cccc(Cl)c3C)cc(NC(=O)c3ccccc3C(F)(F)F)cc2[nH]1 [Free form of compound A, N-(3-chloro-2-methylphenyl)-2-(methoxymethyl)-6-({[2-(trifluoromethyl)phenyl]carbonyl}amino)-1H-benzimidazole-4-carboxamide]",percentage (%) of the area of the peak in the observed peaks in HPLC,[1]; [12],99.76%
same,percentage (%) of the area of the peak in the observed peaks in HPLC,[1]; [13],99.76%
same,percentage (%) of the area of the peak in the observed peaks in HPLC,[1]; [14],99.74%
same,percentage (%) of the area of the peak in the observed peaks in HPLC,[1]; No stimulus,99.78%
COCc1nc2c(C(=O)Nc3cccc(Cl)c3C)cc(NC(=O)c3ccccc3C(F)(F)F)cc2[nH]1.Cc1ccc(S(=O)(=O)O)cc1 [N-(3-chloro-2-methylphenyl)-2-(methoxymethyl)-6-({[2-(trifluoromethyl)phenyl]carbonyl}amino)-1H-benzimidazole-4-carboxamide 4-methylbenzenesulfonate],stability against heat,[2],rather stable against heat
same,time for which the crystal was able to exist stably,[3],≥ 7 days
same,relative stability of crystal forms,[4],higher stability than the 1/2 acetonitrile solvate crystal of the p-TsOH salt of the compound A obtained in Example 3
same,most stable form among the crystals,[5],the most stable form
same,relative stability of crystal forms,[6]; Form-V crystal heated at 205°C for 10 minutes gave Form-III crystal,higher stability than the Form-V crystal
same,relative stability of crystal forms,[6]; Form-VI crystal heated at 190°C for 10 minutes gave Form-III crystal,higher stability than the Form-VI crystal
same,change in crystal form,[7],no change in crystal form was observed under any of the conditions
same,"most stable form among Form-I, Form-II and Form-III crystals",[8],the most stable form
same,percentage (%) of the area of the peak in the observed peaks in HPLC,[1]; [12],99.69%
same,percentage (%) of the area of the peak in the observed peaks in HPLC,[1]; [13],99.68%
same,percentage (%) of the area of the peak in the observed peaks in HPLC,[1]; [14],99.72%
same,percentage (%) of the area of the peak in the observed peaks in HPLC,[1]; No stimulus,99.70%
same,change in the color of the crystal,"[1]; after exposure to heating, light or humidifying stimulus",no change in the color of the crystal was observed
same,change in crystal form,[9],no change in crystal form was observed under any of the conditions
same,percentage (%) of the area of the peak of the Form-I crystal of the p-TsOH salt of the compound A in the observed peaks in HPLC,"[10]; Crystal only, 1 month at 40°C, relative humidity 75%, open system",99.68%
same,percentage (%) of the area of the peak of the Form-I crystal of the p-TsOH salt of the compound A in the observed peaks in HPLC,"[10]; Crystal only, 2 weeks at 40°C, relative humidity 75%, open system",99.70%
same,percentage (%) of the area of the peak of the Form-I crystal of the p-TsOH salt of the compound A in the observed peaks in HPLC,"[10]; Crystal only, immediately after mixing",99.71%
same,observation of the color of the crystal,"[10]; 1 month at 40°C, relative humidity 75%",No color change under any conditions
same,observation of the color of the crystal,"[10]; 2 weeks at 40°C, relative humidity 75%",No color change under any conditions
same,percentage (%) of the area of the peak of the Form-I crystal of the p-TsOH salt of the compound A in the observed peaks in HPLC,"[10]; mixed 1:1 with Corn starch, 1 month at 40°C, relative humidity 75%",99.66%
same,percentage (%) of the area of the peak of the Form-I crystal of the p-TsOH salt of the compound A in the observed peaks in HPLC,"[10]; mixed 1:1 with Corn starch, 2 weeks at 40°C, relative humidity 75%",99.66%
same,percentage (%) of the area of the peak of the Form-I crystal of the p-TsOH salt of the compound A in the observed peaks in HPLC,"[10]; mixed 1:1 with Corn starch, immediately after mixing",99.71%
same,percentage (%) of the area of the peak of the Form-I crystal of the p-TsOH salt of the compound A in the observed peaks in HPLC,"[10]; mixed 1:1 with Crystalline cellulose, 1 month at 40°C, relative humidity 75%",99.69%
same,percentage (%) of the area of the peak of the Form-I crystal of the p-TsOH salt of the compound A in the observed peaks in HPLC,"[10]; mixed 1:1 with Crystalline cellulose, 2 weeks at 40°C, relative humidity 75%",99.65%
same,percentage (%) of the area of the peak of the Form-I crystal of the p-TsOH salt of the compound A in the observed peaks in HPLC,"[10]; mixed 1:1 with Crystalline cellulose, immediately after mixing",99.73%
same,percentage (%) of the area of the peak of the Form-I crystal of the p-TsOH salt of the compound A in the observed peaks in HPLC,"[10]; mixed 1:1 with D-Mannitol, 1 month at 40°C, relative humidity 75%",99.71%
same,percentage (%) of the area of the peak of the Form-I crystal of the p-TsOH salt of the compound A in the observed peaks in HPLC,"[10]; mixed 1:1 with D-Mannitol, 2 weeks at 40°C, relative humidity 75%",99.70%
same,percentage (%) of the area of the peak of the Form-I crystal of the p-TsOH salt of the compound A in the observed peaks in HPLC,"[10]; mixed 1:1 with D-Mannitol, immediately after mixing",99.63%
same,percentage (%) of the area of the peak of the Form-I crystal of the p-TsOH salt of the compound A in the observed peaks in HPLC,"[10]; mixed 1:1 with Lactose, 1 month at 40°C, relative humidity 75%",99.58%
same,percentage (%) of the area of the peak of the Form-I crystal of the p-TsOH salt of the compound A in the observed peaks in HPLC,"[10]; mixed 1:1 with Lactose, 2 weeks at 40°C, relative humidity 75%",99.74%
same,percentage (%) of the area of the peak of the Form-I crystal of the p-TsOH salt of the compound A in the observed peaks in HPLC,"[10]; mixed 1:1 with Lactose, immediately after mixing",99.64%
same,thermal stability in DTA/TGA,[11],stable without any weight change or endothermic or exothermic heat until decomposition at 200 °C or higher

# — patent publication EP4810486A1, “CRYSTAL OF HETEROCYCLIC DERIVATIVE” (Nippon Shinyaku Co., Ltd., priority 2023, dated 2025)
